In patent US20260306491A1, “EGFR INHIBITOR FOR TREATING CANCERS COMPRISING ATYPICAL EGFR MUTATIONS” (ORIC Pharmaceuticals, Inc., priority 2023, published 2026):

Key:
[1] = test system: HER2 exon 20 mutated NSCLC; assay: Clinical evaluation in one subject (Example 12); type: in vivo, human; conditions: hemifumarate, 30 mg BID
Description: A subject having HER2 exon 20 mutated NSCLC was enrolled in a clinical study relating to Compound I. The cancer in the subject had been previously treated with pemetrexed/cisplatin, ipilimumab/nivolumab/carboplatin, and pemetrexed/carboplatin/pembrolizumab. The subject was enrolled in a dosing cohort that received 30 mg BID of Compound I in the form of a hemifumarate salt.

[2] = Phase 1 relative bioavailability of capsule and tablet in healthy subjects: safety; type: in vivo, human
Description: A Phase 1, open-label, single dose study was conducted in healthy human subjects to evaluate the relative bioavailability of two formulations of Compound I. The first formulation of Compound I (Treatment A) was in the form of a capsule comprising about 15 mg of Compound I in the form of a hemifumarate, while the second formulation of Compound I (Treatment B) was in the form of a tablet comprising about 10 mg of Compound I in the form of a malonate and pharmaceutically acceptable excipients. The primary objective of the study was to evaluate the relative bioavailability (BA) of Treatment A and Treatment B administered as a single oral dose under fasting conditions in healthy adult subjects. A secondary objective was to evaluate the safety and tolerability of single dose administration of Compound I Treatment B under fasting conditions. The endpoints of the study were AUC0-last, AUC0-24, AUC0-inf, AUC % extrap, Cmax, Tmax, Kel, t½, CL/F, and Vz/F for Treatment A and Treatment B. The endpoints also included Aetl-t2, Ae, CLr, Fet1-t2, and Fe from Treatment B in period 2. A secondary endpoint included treatment-emergent AEs (TEAEs), clinical laboratory tests, vital signs, and 12 lead electrocardiogram (ECGs).
Methodology: The study was conducted as an open-label, single-dose study. Screening of subjects occurred within 28 days prior to the first dosing. The study was conducted as a randomized, 2-period, crossover study to assess the relative BA of Treatment A and Treatment B. On Day 1 of Period 1 and of Period 2, a single oral dose of Treatment A or Treatment B were administered under fasting conditions. Blood samples for PK were collected pre-dose and through 216 hours post-dose. Urine samples for PK were collected pre-dose and through 48 hours post-dose from subjects randomized to Period 2 Treatment B (tablets). There was a washout period of at least 10 days between dosing in each period. Safety was monitored throughout the study by repeated clinical and laboratory evaluations. Discontinued subjects were not replaced. All 30 enrolled subjects completed the study and were included in the PK and safety analyses.
60 mg Compound I in the form of Treatment B (6×10 mg tablets) was administered at Hour 0 on Day 1 under fasting conditions along with approximately 240 mL of water after a 10-hour fast. The total duration of participation including the screening period for each subject was approximately 8 weeks. There were 2 periods of approximately 14 days each; washout phase was 10 days between both doses. 60 mg of Compound I in the form of Treatment A (4×15 mg capsules) was administered to subjects at Hour 0 on Day 1 under fasting conditions along with approximately 240 mL of water after a 10-hour fast.
Plasma samples for the analysis of Compound I were collected at the following time points relative to dosing on Day 1 of each period: pre-dose and at 0.5, 1, 2, 3, 4, 5, 6, 7, 8, 10, 12, 16, 24, 36, 48, 72, 96, 120, 144, and 216 hours post-dose. Safety was evaluated by TEAEs, clinical laboratory tests, vital signs, 12 lead ECGs, and physical examinations. An analysis of variance (ANOVA) was performed on the natural log (ln)-transformed AUC0-last, AUC0-inf, and Cmax. The ANOVA model included sequence, treatment, and period as fixed effects, and subject nested within sequence as a random effect, and included calculation of least-squares means (LSMs) as well as the difference between treatment LSMs. Ratios of LSMs were calculated using the exponentiation of the difference between treatment LSMs from the analyses on the In-transformed AUC0-last, AUC0-inf, and Cmax. […] Safety was evaluated by clinical laboratory tests, physical examination, vital signs, 12 lead ECGs, and adverse events (AEs). There was no inferential statistics performed.

[3] = 60 mg single oral, healthy subjects
[4] = 60 mg single oral, healthy subjects (30)
[5] = overall, 60 mg single oral, mild

With C=CC(=O)Nc1cc(Nc2cc(N3OCC[C@@H]3c3cc(F)cc(F)c3)ncn2)c(OC)cc1N1CCC(N2CCN(C3CC3)CC2)CC1 [Compound I, N-[2-[4-(4-cyclopropyl-1-piperazinyl)-1-piperidinyl]-5-[[6-[(3R)-3-(3,5-difluorophenyl)-2-isoxazolidinyl]-4-pyrimidinyl]amino]-4-methoxyphenyl]-2-propenamide] the Non-target lesions response ([1]; after cycle 1) was “non-CR/non-PD”, the “Reduction of all target lesions” value ([1]; after cycle 1 (28 days)) was 100% and the Tumor response ([1]; after cycle 1, confirmed end of cycle 2) was “partial response”. The “Duration of dosing at data cutoff” value ([1]; continuing) was “on dosing cycle 3”, the EGFR-related adverse events ([1]; data cutoff Sep. 26, 2023) was “Grade 2 rash and Grade 2 nausea” and the “Reduction of all target lesions” value ([1]; end of cycle 2) was 100%. The Safety and tolerability ([2]; 60 mg single oral (capsule or tablet), fasting, healthy subjects) was “generally safe and well tolerated”, the “Clinical laboratory tests, vital signs, 12-lead ECG, physical examination” value [2, 3] was “no clinically significant findings or trends” and the “Deaths, serious adverse events (SAEs), or TEAEs leading to discontinuation” value [2, 3] was “no deaths, serious adverse events (SAEs), or TEAEs leading to subject discontinuation”. For the same molecule, the “Severe TEAEs” value [2, 4] was “No severe TEAEs were reported”, the “Subjects reporting TEAEs” value [2, 4] was 47% and the “Subjects reporting TEAEs, number” value [2, 4] was 14 n. The “Subjects with TEAEs of maximum severity mild” value [2, 4] was 33%, the “Subjects with TEAEs of maximum severity mild, number” value [2, 4] was 10 n and the “Subjects with TEAEs of maximum severity moderate” value [2, 4] was 13%. The “Subjects with TEAEs of maximum severity moderate, number” value [2, 4] was 4 n, the “Subjects with TEAEs related to the study drug” value [2, 4] was 40% and the “Subjects with TEAEs related to the study drug, number” value [2, 4] was 12 n. For the same molecule, the “Constipation (TEAE)” value [2, 5] was 10%, the “Constipation (TEAE), number of subjects” value [2, 5] was 3 n and the “Dry skin (TEAE)” value [2, 5] was 10%. The “Dry skin (TEAE), number of subjects” value [2, 5] was 3 n, the “Epistaxis (TEAE)” value [2, 5] was 10% and the “Epistaxis (TEAE), number of subjects” value [2, 5] was 3 n. For the same molecule, the “Papular rash (TEAE)” value [2, 5] was 10% and the “Papular rash (TEAE), number of subjects” value [2, 5] was 3 n.
